For one assay, the system named is rats. As to the kind of experiment: Increase in intragastric pressure. It is filed as in vivo. The conditions noted are these: dose level of 1.0 mg/kg s.c.; conscious but restrained rats; average height of pressure waves, 40 minute period after administration vs pre-dose; Student's t test. On the procedure:
Intragastric pressure changes were recorded from previously starved conscious but restrained rats using a saline filled catheter inserted into the lumen of the stomach via a permanent gastric fistula. The catheter was connected to a physiological pressure transducer and pressure changes recorded on a hot wire pen recorder. In each animal a pre-dose period of 40 minutes was allowed to obtain a measure of spontaneous activity. An index of activity was obtained by measuring the average height of pressure waves during 10 minute periods. Values for 4 such periods were obtained during assessment of spontaneous activity and for 40 minute period after administration of compound. Student's "t" test was applied to the difference in average values obtained for spontaneous and post compound activity.

Another assay concerns dog. As to the kind of experiment: Anti-emetic activity in the dog (apomorphine-induced vomiting). It counts as in vivo. The conditions noted are these: compound subcutaneously 30 minutes prior to apomorphine HC1 0.1 mg/kg subcutaneously; for ED50: Canis lupus familiaris, sc, read-out: ED50 values for inhibition of the vomiting response. As for the experimental part:
Compounds were administered subcutaneously 30 minutes prior to administration of a standard dose of apomorphine HC1 (0.1 mg/kg subcutaneously) and the vomiting response compared to that obtained when the same animals were dosed with apomorphine HC1 and vehicle only. The ED50 values for inhibition of the vomiting response determined for compound 11 and 13 were 1.0 mg/kg; for compound 33, 0.1 mg/kg and for compound 35, 0.01 mg/kg.

Consider `COc1cc(N)c(Cl)cc1C(=O)N[C@@H]1C[C@@H]2CCCN2[C@H](C)C1` (racemic) [Compound 8, (±) 4-Amino-5-chloro-2-methoxy-N-[7'β-(9'β-methyl-1'-aza-5'α-H-bicyclo[4,3,n]nonyl)]benzamide], for which, in the assay with rats, the “index of activity post administration” value is “significantly increased”.

Regarding `COc1cc(N)c(Cl)cc1C(=O)N[C@H]1C[C@@H]2CCCN2[C@H](C)C1` (racemic) [Compound 9, (±) 4-Amino-5-chloro-2-methoxy-N-[7'α-(9'β-methyl-1'-aza-5'α-H-bicyclo[4,3,0]nonyl)]benzamide], in the assay with rats, the “index of activity post administration” value is “significantly increased”.

Take `COc1cc(N)c(Cl)cc1C(=O)N[C@@H]1C[C@@H]2CCCN2[C@@H](C)C1` (racemic) [Compound 11, (±) 4-Amino-5-chloro-2-methoxy-rd-[7'β-(9'α-methyl-1'-aza-5α-H-bicyclo[4,3,0]nonyl)]benzamide]: the ED50 – broadly, the dose at which the effect has come halfway, by size or by number of responders – with dog came to 1 mg/kg. Moreover, the “index of activity post administration” value with rats is on record as “significantly increased”.

Turning to `COc1cc(N)c(Cl)cc1C(=O)N[C@H]1C[C@@H]2CCCN2[C@@H](C)C1` (racemic) [Compound 13, (±) 4-Amino-5-chloro-2-methoxy-N-[7'α-(9'α-methyl-1'-aza-5α-H-bicyclo[4,3,0]nonyl)]benzamide], the ED50 in the assay on dog came to 1 mg/kg.

For `CC[C@H]1C[C@H](NC(=O)c2cc(Cl)c(N)cc2OC)C[C@@H]2CCCN12` (racemic) [Compound 33, (±) 4-Amino-5-chloro-2-methoxy-N-[7'β-(9'α-ethyl-1'-aza-5'α-H-bicyclo[4,3,0]nonyl)]benzamide], in the assay with dog, the ED50 was 0.1 mg/kg.

As to “(±) 4-Amino-5-chloro-2-methoxy-N-[7'β-(9'α-isopropyl-1'-aza-5'-α-H-bicyclo[4,3,0]nonyl)]benzamide [Compound 35]”, in the assay with dog, the “ED50 values for inhibition of the vomiting response” value was 0.01 mg/kg.
